Where a chain is given by its changes, count along the chain named.
Assays:
[1] = target: Maternal embryonic leucine zipper kinase (Homo sapiens) (UniProt Q14680); experiment: Selectivity interaction (KinomeScan (DiscoverX)) EUB0001079a MELK; conditions: at 1 µM
[2] = target: Mitogen-activated protein kinase 14 (Homo sapiens, UniProt Q16539); experiment: Selectivity interaction (ActivX KiNativ screen (kinase selectivity in THP-1 cell lysates)) EUB0000639a MAPK14; assay type: subcellular; conditions: lysate, at 5 µM
[3] = target: T1, Inhibitor of nuclear factor kappa-B kinase subunit beta (Homo sapiens) (UniProt O14920); experiment: Selectivity interaction (ActivX KiNativ screen (kinase selectivity in THP-1 cell lysates)) EUB0000639a IKBKB; assay type: subcellular; conditions: lysate, at 1 µM
T1 sequence (whole entry): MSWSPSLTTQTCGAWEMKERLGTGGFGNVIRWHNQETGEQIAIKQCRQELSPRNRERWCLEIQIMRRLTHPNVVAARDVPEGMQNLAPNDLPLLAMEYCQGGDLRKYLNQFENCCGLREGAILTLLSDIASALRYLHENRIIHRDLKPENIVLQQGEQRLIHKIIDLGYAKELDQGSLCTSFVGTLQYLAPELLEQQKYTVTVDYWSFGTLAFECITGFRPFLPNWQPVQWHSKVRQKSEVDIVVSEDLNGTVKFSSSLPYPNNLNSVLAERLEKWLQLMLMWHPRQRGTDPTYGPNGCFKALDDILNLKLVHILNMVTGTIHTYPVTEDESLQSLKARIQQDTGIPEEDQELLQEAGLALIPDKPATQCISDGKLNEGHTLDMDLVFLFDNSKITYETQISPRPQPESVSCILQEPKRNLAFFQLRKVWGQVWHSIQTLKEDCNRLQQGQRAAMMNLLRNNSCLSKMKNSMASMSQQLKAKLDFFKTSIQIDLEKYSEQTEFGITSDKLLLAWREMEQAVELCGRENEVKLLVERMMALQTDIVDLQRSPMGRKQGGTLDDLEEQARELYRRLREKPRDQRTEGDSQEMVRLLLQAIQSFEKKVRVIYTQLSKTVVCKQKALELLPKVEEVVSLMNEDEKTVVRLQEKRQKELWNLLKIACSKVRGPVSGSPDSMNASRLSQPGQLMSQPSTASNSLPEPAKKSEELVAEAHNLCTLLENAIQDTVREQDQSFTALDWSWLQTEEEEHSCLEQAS

[4] = test system: T2, Receptor-type tyrosine-protein kinase FLT3 (Homo sapiens), P36888 [N841I]; experiment: (§1) Selectivity interaction (KinomeScan (DiscoverX)) EUB0001619a FLT3; conditions: at 1 µM
T2 sequence (whole entry): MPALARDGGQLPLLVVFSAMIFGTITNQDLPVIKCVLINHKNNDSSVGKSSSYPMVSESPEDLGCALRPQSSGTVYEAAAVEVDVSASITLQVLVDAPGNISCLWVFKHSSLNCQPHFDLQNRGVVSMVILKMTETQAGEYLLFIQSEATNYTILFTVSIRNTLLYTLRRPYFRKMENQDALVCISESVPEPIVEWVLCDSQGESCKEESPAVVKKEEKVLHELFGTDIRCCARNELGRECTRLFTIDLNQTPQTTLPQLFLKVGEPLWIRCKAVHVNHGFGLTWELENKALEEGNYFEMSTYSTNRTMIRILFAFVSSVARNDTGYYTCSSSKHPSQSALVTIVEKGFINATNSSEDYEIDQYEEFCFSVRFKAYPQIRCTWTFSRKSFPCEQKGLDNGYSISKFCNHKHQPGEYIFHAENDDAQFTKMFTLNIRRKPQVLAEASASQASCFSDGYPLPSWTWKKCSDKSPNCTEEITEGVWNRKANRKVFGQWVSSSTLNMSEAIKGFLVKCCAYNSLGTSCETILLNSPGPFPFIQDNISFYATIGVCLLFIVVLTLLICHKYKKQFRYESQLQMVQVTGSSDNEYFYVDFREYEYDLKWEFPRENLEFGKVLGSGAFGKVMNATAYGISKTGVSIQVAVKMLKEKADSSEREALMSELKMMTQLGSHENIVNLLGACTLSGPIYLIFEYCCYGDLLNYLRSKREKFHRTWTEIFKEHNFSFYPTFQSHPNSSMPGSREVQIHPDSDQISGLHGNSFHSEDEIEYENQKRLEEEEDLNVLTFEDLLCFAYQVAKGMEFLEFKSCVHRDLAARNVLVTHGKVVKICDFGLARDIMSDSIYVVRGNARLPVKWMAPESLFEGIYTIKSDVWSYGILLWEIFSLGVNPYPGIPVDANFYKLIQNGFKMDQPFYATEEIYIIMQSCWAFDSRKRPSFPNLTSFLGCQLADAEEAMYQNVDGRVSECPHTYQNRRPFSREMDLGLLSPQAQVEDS

[5] = target: Receptor-type tyrosine-protein kinase FLT3 (Homo sapiens) (UniProt P36888); experiment: as §1; conditions: at 1 µM
[6] = test system: Receptor-type tyrosine-protein kinase FLT3 (Homo sapiens), P36888 [UNDEFINED MUTATION]; experiment: as §1; conditions: at 1 µM
[7] = test system: T3, Receptor-type tyrosine-protein kinase FLT3 (Homo sapiens), P36888 [K663Q]; experiment: as §1; conditions: at 1 µM
T3 sequence (whole entry): T2 sequence (whole entry) with K663Q, I841N

Maternal embryonic leucine zipper kinase (Homo sapiens), sequence (Q14680 whole entry, looked up): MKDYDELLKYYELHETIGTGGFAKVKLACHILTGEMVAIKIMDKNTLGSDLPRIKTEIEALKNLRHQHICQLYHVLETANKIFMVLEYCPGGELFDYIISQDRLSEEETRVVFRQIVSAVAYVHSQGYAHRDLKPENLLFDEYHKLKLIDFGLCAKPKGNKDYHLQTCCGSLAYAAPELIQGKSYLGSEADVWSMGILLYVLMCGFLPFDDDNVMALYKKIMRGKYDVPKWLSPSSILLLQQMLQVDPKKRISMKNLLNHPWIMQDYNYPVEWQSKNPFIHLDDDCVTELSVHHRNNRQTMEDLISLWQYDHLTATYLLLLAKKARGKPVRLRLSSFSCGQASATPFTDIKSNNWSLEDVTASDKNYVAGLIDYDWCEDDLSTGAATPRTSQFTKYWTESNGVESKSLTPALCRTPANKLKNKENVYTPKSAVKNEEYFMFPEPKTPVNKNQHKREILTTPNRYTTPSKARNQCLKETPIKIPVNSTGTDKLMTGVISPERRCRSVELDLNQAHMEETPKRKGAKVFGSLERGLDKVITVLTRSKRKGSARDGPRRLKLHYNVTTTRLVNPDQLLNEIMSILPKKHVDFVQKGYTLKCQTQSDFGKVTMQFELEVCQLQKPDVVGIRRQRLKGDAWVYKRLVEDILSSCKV
Mitogen-activated protein kinase 14, sequence (Q16539 whole entry): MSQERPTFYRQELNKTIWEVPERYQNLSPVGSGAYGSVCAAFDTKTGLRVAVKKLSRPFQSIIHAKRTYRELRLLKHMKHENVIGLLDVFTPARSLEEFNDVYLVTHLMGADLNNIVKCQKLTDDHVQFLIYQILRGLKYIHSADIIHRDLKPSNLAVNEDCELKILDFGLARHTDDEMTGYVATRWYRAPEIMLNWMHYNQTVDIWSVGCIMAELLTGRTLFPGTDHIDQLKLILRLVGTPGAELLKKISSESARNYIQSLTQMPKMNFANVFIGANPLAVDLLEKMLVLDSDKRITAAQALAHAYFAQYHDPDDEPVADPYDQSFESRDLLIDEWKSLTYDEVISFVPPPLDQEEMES

Structure (SMILES): Nc1cnc(N2CCc3cc(S(=O)(=O)Nc4c(F)cc(Cl)cc4F)cc(N4CCCC4=O)c32)nc1 [TP-020n]
- % of control [1]: 90%

Structure (SMILES): CC[C@@H]1[C@H](F)C(=O)N[C@@H]1COc1nccc2cc(C(N)=O)c(OC)cc12 [ZIMLOVISERTIB]
- % of inhibition [2]: -3.8%
- % of inhibition [3]: -6.6%

Structure (SMILES): N#Cc1cccc(-c2c[nH]c3ncnc(N4CCOCC4)c23)c1
- % of control [4]: 100%
- % of control [5]: 89%
- % of control [6]: 100%
- % of control [7]: 71%

— ChEMBL document CHEMBL5465560, “Selectivity Literature for EUbOPEN Chemogenomic Library” (2024)
